Experimental data: patent US20240381871A1, “5-HALOALKOXY-PYRIMIDINE COMPOUNDS AS HERBICIDES” (SYNGENTA CROP PROTECTION AG, priority 2020, published 2024)

Tests used:
Type in all cases: in vivo
[1] = system: Zea mays (ZEAMX); test: Comparative post-emergence test, crop damage; conditions: 336 h, after 14 days, read-out: ZEAMX damage (100=total damage to plant; 0=no damage)
Protocol: (§1) Seeds of test species were sown in standard soil in pots. After cultivation for 10 days (post-emergence) under controlled conditions in a glasshouse (at 24/16° C., day/night; 14 hours light; 65% humidity), the plants were sprayed with an aqueous spray solution derived from the formulation of the technical active ingredient in 0.6 ml acetone and 45 ml formulation solution containing 10.6% Emulsogen EL (Registry number 61791-12-6), 42.2% N-methyl pyrrolidone, 42.2% dipropylene glycol monomethyl ether (CAS RN 34590-94-8) and 0.2% X-77 (CAS RN 11097-66-8). The test plants were then grown in a glasshouse under controlled conditions in a glasshouse (at 24/16° C., day/night; 14 hours light; 65% humidity) and watered twice daily. After 14 days, the test was evaluated (100=total damage to plant; 0=no damage to plant). • Weeds: Ipomea hederacea (IPOHE) • Crops: Zea mays (ZEAMX)

[2] = system: Ipomea hederacea (IPOHE); test: Comparative post-emergence test, weed control; conditions: Ipomoea hederacea, 336 h, after 14 days, read-out: IPOHE damage (100=total damage to plant; 0=no damage)
Protocol: as §1

[3] = system: Abutilon theophrasti (ABUTH); test: Post-emergence herbicidal glasshouse test; conditions: rate 250, evaluated after 13 days, the values are:
Protocol: (§2) Seeds of a variety of test species are sown in standard soil in pots, Amaranthus retoflexus (AMARE), Abutilon theophrasti (ABUTH), Setaria faberi (SETFA), Echinochloa crus-galli (ECHCG) and Ipomoea hederacea (IPOHE). After cultivation for one day (pre-emergence) or after 8 days cultivation (post-emergence) under controlled conditions in a glasshouse (at 24/16° C., day/night; 14 hours light; 65% humidity), the plants are sprayed with an aqueous spray solution derived from the formulation of the technical active ingredient in acetone/water (50:50) solution containing 0.5% Tween 20 (polyoxyethelyene sorbitan monolaurate, CAS RN 9005-64-5). Compounds are applied at 1000 g/ha unless otherwise stated. The test plants are then grown in a glasshouse under controlled conditions in a glasshouse (at 24/16° C., day/night; 14 hours light; 65% humidity) and watered twice daily. After 13 days for pre and post-emergence, the test is evaluated for the percentage damage caused to the plant.

[4] = system: Amaranthus retoflexus (AMARE); test: Post-emergence herbicidal glasshouse test; conditions: rate 250, evaluated after 13 days, the values are: phytotoxicity score (1-5 scale)
Protocol: as §2

[5] = system: Ipomoea hederacea (IPOHE); test: Post-emergence herbicidal glasshouse test; conditions: rate 250, evaluated after 13 days, the values are: phytotoxicity score (1-5 scale)
Protocol: as §2

[6] = system: Setaria faberi (SETFA); test: Post-emergence herbicidal glasshouse test; conditions: rate 250, evaluated after 13 days, the values are:
Protocol: as §2

[7] = system: Abutilon theophrasti (ABUTH); test: Pre-emergence herbicidal glasshouse test; conditions: rate 250, evaluated after 13 days, the values are:
Protocol: as §2

[8] = system: Amaranthus retoflexus (AMARE); test: Pre-emergence herbicidal glasshouse test; conditions: rate 250, evaluated after 13 days, the values are:
Protocol: as §2

[9] = system: Ipomoea hederacea (IPOHE); test: Pre-emergence herbicidal glasshouse test; conditions: rate 250, evaluated after 13 days, the values are:
Protocol: as §2

[10] = system: Setaria faberi (SETFA); test: Pre-emergence herbicidal glasshouse test; conditions: rate 250, evaluated after 13 days, the values are: phytotoxicity score (1-5)
Protocol: as §2

[11] = system: Echinochloa crus-galli (ECHCG); test: Post-emergence herbicidal glasshouse test; conditions: rate 250, evaluated after 13 days, the values are: phytotoxicity score (1-5 scale)
Protocol: as §2

[12] = system: Echinochloa crus-galli (ECHCG); test: Pre-emergence herbicidal glasshouse test; conditions: rate 250, evaluated after 13 days, the values are: phytotoxicity score (1-5)
Protocol: as §2

COc1cnc(Oc2cccc(F)c2-c2cc(C(F)F)no2)nc1
plant injury at 2 g/ha [1]: 0% | plant injury at 8 g/ha [1]: 0% | plant injury at 60 g/ha [1]: 10% | plant injury at 125 g/ha [1]: 10% | plant injury at 250 g/ha [1]: 10% | plant injury at 500 g/ha [1]: 40% | pest or weed control at 2 g/ha [2]: 10% | pest or weed control at 8 g/ha [2]: 10% | pest or weed control at 60 g/ha [2]: 20% | pest or weed control at 125 g/ha [2]: 50% | pest or weed control at 250 g/ha [2]: 60% | pest or weed control at 500 g/ha [2]: 70%

COc1cnc(Oc2cccc(Cl)c2-c2cc(C(F)F)no2)nc1
plant injury at 2 g/ha [1]: 0% | plant injury at 8 g/ha [1]: 0% | plant injury at 60 g/ha [1]: 10% | plant injury at 125 g/ha [1]: 20% | plant injury at 250 g/ha [1]: 30% | pest or weed control at 2 g/ha [2]: 20% | pest or weed control at 8 g/ha [2]: 30% | pest or weed control at 60 g/ha [2]: 20% | pest or weed control at 125 g/ha [2]: 50% | pest or weed control at 250 g/ha [2]: 60%

COc1cnc(Oc2cccc(Br)c2-c2cc(C(F)F)no2)nc1
plant injury at 2 g/ha [1]: 0% | plant injury at 8 g/ha [1]: 0% | plant injury at 60 g/ha [1]: 0% | plant injury at 125 g/ha [1]: 10% | plant injury at 250 g/ha [1]: 30% | pest or weed control at 2 g/ha [2]: 10% | pest or weed control at 8 g/ha [2]: 30% | pest or weed control at 60 g/ha [2]: 50% | pest or weed control at 125 g/ha [2]: 50% | pest or weed control at 250 g/ha [2]: 60%

COc1cnc(Oc2cccc(C#N)c2-c2cc(C(F)F)no2)nc1
plant injury at 2 g/ha [1]: 0% | plant injury at 8 g/ha [1]: 0% | plant injury at 60 g/ha [1]: 0% | plant injury at 125 g/ha [1]: 10% | plant injury at 250 g/ha [1]: 10% | plant injury at 500 g/ha [1]: 40% | pest or weed control at 2 g/ha [2]: 10% | pest or weed control at 8 g/ha [2]: 30% | pest or weed control at 60 g/ha [2]: 40% | pest or weed control at 125 g/ha [2]: 50% | pest or weed control at 250 g/ha [2]: 50% | pest or weed control at 500 g/ha [2]: 60%

Fc1cccc(Oc2ncc(OC(F)F)cn2)c1-c1cc(C(F)F)no1 [Compound 1.001, 5-[2-[5-(difluoromethoxy)pyrimidin-2-yl]oxy-6-fluoro-phenyl]-3-(difluoromethyl)isoxazole]
Post-emergence activity ABUTH (% phytotoxicity) [3]: 3 | Post-emergence activity AMARE (% phytotoxicity) [4]: 4 | Post-emergence activity IPOHE (% phytotoxicity) [5]: 3 | Post-emergence activity SETFA (% phytotoxicity) [6]: 4 | Pre-emergence activity ABUTH (% phytotoxicity) [7]: 5 | Pre-emergence activity AMARE (% phytotoxicity) [8]: 5 | Pre-emergence activity IPOHE (% phytotoxicity) [9]: 5 | Pre-emergence activity SETFA (% phytotoxicity) [10]: 5 | plant injury at 8 g/ha [1]: 0% | plant injury at 60 g/ha [1]: 20% | plant injury at 125 g/ha [1]: 10% | plant injury at 250 g/ha [1]: 20% | plant injury at 500 g/ha [1]: 40% | pest or weed control at 2 g/ha [2]: 30% | pest or weed control at 8 g/ha [2]: 20% | pest or weed control at 60 g/ha [2]: 70% | pest or weed control at 125 g/ha [2]: 80% | pest or weed control at 250 g/ha [2]: 90% | pest or weed control at 500 g/ha [2]: 100%

Fc1cccc(Oc2ncc(OC(F)(F)F)cn2)c1-c1cc(C(F)F)no1 [Compound 1.002, 3-(difluoromethyl)-5-[2-fluoro-6-[5-(trifluoromethoxy)pyrimidin-2-yl]oxy-phenyl]isoxazole]
Post-emergence activity ABUTH (% phytotoxicity) [3]: 4 | Post-emergence activity AMARE (% phytotoxicity) [4]: 4 | Post-emergence activity ECHCG (% phytotoxicity) [11]: 4 | Post-emergence activity IPOHE (% phytotoxicity) [5]: 3 | Post-emergence activity SETFA (% phytotoxicity) [6]: 4 | Pre-emergence activity ABUTH (% phytotoxicity) [7]: 5 | Pre-emergence activity AMARE (% phytotoxicity) [8]: 5 | Pre-emergence activity ECHCG (% phytotoxicity) [12]: 4 | Pre-emergence activity IPOHE (% phytotoxicity) [9]: 4 | Pre-emergence activity SETFA (% phytotoxicity) [10]: 5

FC(F)Oc1cnc(Oc2cccc(Cl)c2CCCC(F)(F)F)nc1 [Compound 1.023, 2-[3-chloro-2-(4,4,4-trifluorobutyl)phenoxy]-5-(difluoromethoxy)pyrimidine]
Post-emergence activity ABUTH (% phytotoxicity) [3]: 1 | Post-emergence activity AMARE (% phytotoxicity) [4]: 1 | Post-emergence activity ECHCG (% phytotoxicity) [11]: 1 | Post-emergence activity IPOHE (% phytotoxicity) [5]: 1 | Post-emergence activity SETFA (% phytotoxicity) [6]: 1 | Pre-emergence activity ABUTH (% phytotoxicity) [7]: 1 | Pre-emergence activity AMARE (% phytotoxicity) [8]: 1 | Pre-emergence activity ECHCG (% phytotoxicity) [12]: 1 | Pre-emergence activity IPOHE (% phytotoxicity) [9]: 1 | Pre-emergence activity SETFA (% phytotoxicity) [10]: 1

FC(F)Oc1cnc(Oc2cccc(Br)c2CCCC(F)(F)F)nc1 [Compound 1.024]
Post-emergence activity ABUTH (% phytotoxicity) [3]: 1 | Post-emergence activity AMARE (% phytotoxicity) [4]: 2 | Post-emergence activity ECHCG (% phytotoxicity) [11]: 1 | Post-emergence activity IPOHE (% phytotoxicity) [5]: 1 | Post-emergence activity SETFA (% phytotoxicity) [6]: 1 | Pre-emergence activity ABUTH (% phytotoxicity) [7]: 1 | Pre-emergence activity AMARE (% phytotoxicity) [8]: 2 | Pre-emergence activity ECHCG (% phytotoxicity) [12]: 1 | Pre-emergence activity IPOHE (% phytotoxicity) [9]: 1 | Pre-emergence activity SETFA (% phytotoxicity) [10]: 1

N#Cc1cccc(Oc2ncc(OC(F)F)cn2)c1CCCC(F)(F)F [Compound 1.025]
Post-emergence activity ABUTH (% phytotoxicity) [3]: 1 | Post-emergence activity AMARE (% phytotoxicity) [4]: 2 | Post-emergence activity ECHCG (% phytotoxicity) [11]: 1 | Post-emergence activity IPOHE (% phytotoxicity) [5]: 1 | Post-emergence activity SETFA (% phytotoxicity) [6]: 1 | Pre-emergence activity ABUTH (% phytotoxicity) [7]: 1 | Pre-emergence activity AMARE (% phytotoxicity) [8]: 1 | Pre-emergence activity ECHCG (% phytotoxicity) [12]: 1 | Pre-emergence activity IPOHE (% phytotoxicity) [9]: 1 | Pre-emergence activity SETFA (% phytotoxicity) [10]: 1

O=C(CCC(F)(F)F)c1c(Cl)cccc1Oc1ncc(OC(F)F)cn1 [Compound 1.027, 1-[2-chloro-6-[5-(difluoromethoxy)pyrimidin-2-yl]oxy-phenyl]-4,4,4-trifluoro-butan-1-one]
Post-emergence activity ABUTH (% phytotoxicity) [3]: 3 | Post-emergence activity AMARE (% phytotoxicity) [4]: 4 | Post-emergence activity ECHCG (% phytotoxicity) [11]: 1 | Post-emergence activity IPOHE (% phytotoxicity) [5]: 3 | Post-emergence activity SETFA (% phytotoxicity) [6]: 1 | Pre-emergence activity ABUTH (% phytotoxicity) [7]: 3 | Pre-emergence activity AMARE (% phytotoxicity) [8]: 4 | Pre-emergence activity ECHCG (% phytotoxicity) [12]: 2 | Pre-emergence activity IPOHE (% phytotoxicity) [9]: 1 | Pre-emergence activity SETFA (% phytotoxicity) [10]: 4

O=C(CCC(F)(F)F)c1c(Br)cccc1Oc1ncc(OC(F)F)cn1 [Compound 1.028]
Post-emergence activity ABUTH (% phytotoxicity) [3]: 2 | Post-emergence activity AMARE (% phytotoxicity) [4]: 5 | Post-emergence activity ECHCG (% phytotoxicity) [11]: 1 | Post-emergence activity IPOHE (% phytotoxicity) [5]: 2 | Post-emergence activity SETFA (% phytotoxicity) [6]: 1 | Pre-emergence activity ABUTH (% phytotoxicity) [7]: 2 | Pre-emergence activity AMARE (% phytotoxicity) [8]: 5 | Pre-emergence activity ECHCG (% phytotoxicity) [12]: 1 | Pre-emergence activity IPOHE (% phytotoxicity) [9]: 1 | Pre-emergence activity SETFA (% phytotoxicity) [10]: 5

COc1cnc(Oc2ccccc2-c2cc(C(F)F)no2)nc1 [Compound 213]
plant injury at 2 g/ha [1]: 0% | plant injury at 8 g/ha [1]: 0% | plant injury at 60 g/ha [1]: 0% | plant injury at 125 g/ha [1]: 0% | plant injury at 250 g/ha [1]: 0% | plant injury at 500 g/ha [1]: 20% | pest or weed control at 2 g/ha [2]: 0% | pest or weed control at 8 g/ha [2]: 10% | pest or weed control at 60 g/ha [2]: 20% | pest or weed control at 125 g/ha [2]: 30% | pest or weed control at 250 g/ha [2]: 40% | pest or weed control at 500 g/ha [2]: 50%
